According to ChEMBL document CHEMBL4483862, “Open-source discovery of chemical leads for next-generation chemoprotective antimalarials” (2018):

Test system: Plasmodium berghei
Assay: Luciferase/luciferin-expressing antifolate-resistant parasites were used to infect a culture of HepG2 cells that were pre-incubated with compounds. Infected hepatocytes emit light due to the luciferase reaction. Assay results are presented as the percent inhibition of light emission compared to control. […]
Assay type: functional
Details: sporozoite; for IC90: read-out: LUCIFERASE INFECTION ASSAY - IC90

SMILES | IC90 [µM] | also measured
Cc1cccc(-c2nc3c(NCc4ccccc4)nccc3[nH]2)c1 | 9.18 | IC50 (PBLUC_HILL_SLOPE 2.29, PBLUC_R_SQUARED 0.394, read-out: LUCIFERASE INFECTION ASSAY - IC50): 3.51 µM
CC(C)(C)c1ccc(C(=O)NC(=S)Nc2nc3c(s2)CCCC3)cc1 | 8.77 | IC50 (PBLUC_HILL_SLOPE 2.3, PBLUC_R_SQUARED 0.829, read-out: LUCIFERASE INFECTION ASSAY - IC50): 3.37 µM
Clc1ccc(-c2cnc3cnc(-c4ccncc4)cn23)cc1 | 4.84 | IC50 (PBLUC_HILL_SLOPE 2.25, PBLUC_R_SQUARED 0.741, read-out: LUCIFERASE INFECTION ASSAY - IC50): 1.82 µM
CS(=O)(=O)NCCc1ccc(C(=O)Nc2ncccc2O)cc1 | > 10 | IC50 (PBLUC_HILL_SLOPE 2.26, PBLUC_R_SQUARED 0.152, read-out: LUCIFERASE INFECTION ASSAY - IC50): 6.59 µM
O=C(Nc1ccccn1)c1ccc(Cl)c(S(=O)(=O)N(Cc2ccccc2)c2ccccc2)c1 | > 10 | IC50 (PBLUC_HILL_SLOPE 2.32, PBLUC_R_SQUARED 0.355, read-out: LUCIFERASE INFECTION ASSAY - IC50): 5.62 µM
O=C(CCn1c(-c2ccc(F)cc2)n[nH]c1=S)Nc1nc2c(s1)CCCC2 | > 10 | IC50 (PBLUC_HILL_SLOPE 2.35, PBLUC_R_SQUARED 0.213, read-out: LUCIFERASE INFECTION ASSAY - IC50): 4.33 µM
Cc1cc(C(=O)CN2C(=O)NC3(CCCc4sccc43)C2=O)c(C)n1Cc1ccc2c(c1)OCO2 (stereo not given) | > 10 | IC50 (PBLUC_HILL_SLOPE 2.26, PBLUC_R_SQUARED 0.443, read-out: LUCIFERASE INFECTION ASSAY - IC50): 8.17 µM
COc1ccc(C2=NOC(C(N)=O)C2)cc1OC (stereo not given) | 9.25 | IC50 (PBLUC_HILL_SLOPE 2.3, PBLUC_R_SQUARED 0.443, read-out: LUCIFERASE INFECTION ASSAY - IC50): 3.55 µM
OC(c1ccc(F)c(Cl)c1)c1nnc(Nc2cccc(OC(F)(F)F)c2)s1 (stereo not given) | > 10 | IC50 (PBLUC_HILL_SLOPE 2.34, PBLUC_R_SQUARED 0.225, read-out: LUCIFERASE INFECTION ASSAY - IC50): 9.05 µM
CC(=O)c1ccc(C#CCOC(=O)c2cccs2)s1 | > 11.4 | IC50 (PBLUC_HILL_SLOPE 2.26, PBLUC_R_SQUARED 0.405, read-out: LUCIFERASE INFECTION ASSAY - IC50): 5.72 µM
COc1ccccc1-n1c(C)c(C)c2c1ncn1nc(-c3ccncc3)nc21 | > 8.91 | IC50 (PBLUC_HILL_SLOPE 2.29, PBLUC_R_SQUARED 0.762, read-out: LUCIFERASE INFECTION ASSAY - IC50): > 8.91 µM
CN1c2ccccc2C(C)(C)C12C=Cc1c(ccc3oc4c(c13)CCCC4)O2 (stereo not given) | > 10 | IC50 (PBLUC_HILL_SLOPE 2.26, PBLUC_R_SQUARED 0.401, read-out: LUCIFERASE INFECTION ASSAY - IC50): 8.28 µM
Cc1cc2ccccn2c1C(=O)c1cccc2nc3ccccc3nc12 | > 10 | IC50 (PBLUC_HILL_SLOPE 2.29, PBLUC_R_SQUARED 0.419, read-out: LUCIFERASE INFECTION ASSAY - IC50): 7.29 µM
CC1CCc2sc(C(=O)N(C)Cc3nc(=O)c4ccccc4[nH]3)cc2C1 (stereo not given) | 6.74 | IC50 (PBLUC_HILL_SLOPE 2.24, PBLUC_R_SQUARED 0.489, read-out: LUCIFERASE INFECTION ASSAY - IC50): 2.52 µM
CCOC(=O)c1sc2ncn(-n3c(C)ccc3C)c(=O)c2c1C | 7.62 | IC50 (PBLUC_HILL_SLOPE 2.28, PBLUC_R_SQUARED 0.71, read-out: LUCIFERASE INFECTION ASSAY - IC50): 2.9 µM
Cc1ccccc1-c1cnc2cnc(-c3ccc(N4CCN(C)CC4)nc3)cn12 | > 8.58 | IC50 (PBLUC_HILL_SLOPE 2.3, PBLUC_R_SQUARED 0.345, read-out: LUCIFERASE INFECTION ASSAY - IC50): > 8.58 µM
COc1cccc(Nc2nccc3nc(-c4cccc(C(F)(F)F)c4)[nH]c23)c1 | > 10 | IC50 (PBLUC_HILL_SLOPE 2.33, PBLUC_R_SQUARED 0.497, read-out: LUCIFERASE INFECTION ASSAY - IC50): 4.16 µM
COc1ccc(-c2nc3c(c(SCCN4CCCC4)n2)COC(C)(C)C3)cc1 | > 8.26 | IC50 (PBLUC_HILL_SLOPE 2.26, PBLUC_R_SQUARED 0.135, read-out: LUCIFERASE INFECTION ASSAY - IC50): 5.35 µM
Cc1cc(C)c(NC(=NCc2ccc(Cl)cc2)Nc2c(C)cc(C)cc2C)c(C)c1 | > 10 | IC50 (PBLUC_HILL_SLOPE 2.28, PBLUC_R_SQUARED 0.76, read-out: LUCIFERASE INFECTION ASSAY - IC50): 5.92 µM
C=CCOC(=O)C1=C(C)N(c2ccc3c(c2)OCCO3)C(=S)NC1c1ccc(F)cc1F (stereo not given) | > 10 | IC50 (PBLUC_HILL_SLOPE 2.28, PBLUC_R_SQUARED 0.442, read-out: LUCIFERASE INFECTION ASSAY - IC50): 5.73 µM

SMILES | IC90 [µM] | also measured
CCc1nc2ccccc2c(C(=O)OCC(=O)Nc2ccc(C#N)cc2)c1C | > 10 | IC50 (PBLUC_HILL_SLOPE 2.25, PBLUC_R_SQUARED 0.588, read-out: LUCIFERASE INFECTION ASSAY - IC50): 4.96 µM
O=C(Nc1cccc(NC(=O)c2ccccc2Nc2ccccc2)c1)c1ccco1 | > 10 | IC50 (PBLUC_HILL_SLOPE 2.3, PBLUC_R_SQUARED 0.121, read-out: LUCIFERASE INFECTION ASSAY - IC50): 5.43 µM
OC(c1cccc(C(F)(F)F)c1)c1nnc(Nc2ccccc2)s1 (stereo not given) | > 10 | IC50 (PBLUC_HILL_SLOPE 2.28, PBLUC_R_SQUARED 0.325, read-out: LUCIFERASE INFECTION ASSAY - IC50): 7.1 µM
CCN(CC)S(=O)(=O)N1CCN(C(=O)c2[nH]nc3ccccc23)CC1 | 3.63 | IC50 (PBLUC_HILL_SLOPE 2.28, PBLUC_R_SQUARED 0.575, read-out: LUCIFERASE INFECTION ASSAY - IC50): 1.39 µM
C/C(=N\NC(=O)c1sc2ccccc2c1Cl)c1ccc(C(C)(C)C)cc1 | > 10 | IC50 (PBLUC_HILL_SLOPE 2.25, PBLUC_R_SQUARED 0.703, read-out: LUCIFERASE INFECTION ASSAY - IC50): 4.74 µM
Clc1nc(NCc2ccc3c(c2)OCO3)c2[nH]cnc2n1 | > 10.9 | IC50 (PBLUC_HILL_SLOPE 2.33, PBLUC_R_SQUARED 0.359, read-out: LUCIFERASE INFECTION ASSAY - IC50): 9.8 µM
Cc1ccc(Nc2ccnc(Nc3ccc(C)cc3)n2)cc1 | > 10 | IC50 (PBLUC_HILL_SLOPE 2.32, 3.33, PBLUC_R_SQUARED 0.458, 0.517, read-out: LUCIFERASE INFECTION ASSAY - IC50): 4.86 µM
CN(C)c1ccc(CNCC2(c3ccnc(-c4ccc(Cl)cc4)c3)CC2)cc1 | > 10 | IC50 (PBLUC_HILL_SLOPE 2.32, PBLUC_R_SQUARED 0.214, read-out: LUCIFERASE INFECTION ASSAY - IC50): 6.36 µM
CCNC(=O)c1cc(Cl)c(OCc2ccccc2)c(OC)c1 | > 10.3 | IC50 (PBLUC_HILL_SLOPE 2.26, PBLUC_R_SQUARED 0.647, read-out: LUCIFERASE INFECTION ASSAY - IC50): 5.81 µM
FC(F)(F)Oc1cccc(-c2cnc3sc(NCCN4CCOCC4)nn23)c1 | > 7.98 | IC50 (PBLUC_HILL_SLOPE 2.27, PBLUC_R_SQUARED 0.551, read-out: LUCIFERASE INFECTION ASSAY - IC50): 5.39 µM
O=C1NC2(CCOc3ccccc32)C(=O)N1CC(=O)N1N=C(c2ccc(Cl)cc2)CC1c1ccco1 (stereo not given) | > 10 | IC50 (PBLUC_HILL_SLOPE 2.24, PBLUC_R_SQUARED 0.678, read-out: LUCIFERASE INFECTION ASSAY - IC50): 5.4 µM
CCOc1cc(/C=C/c2nc3cc(Cl)ccc3o2)ccc1OCC(=O)N(C(C)C)C(C)C | > 10 | IC50 (PBLUC_HILL_SLOPE 2.25, PBLUC_R_SQUARED 0.0279, read-out: LUCIFERASE INFECTION ASSAY - IC50): > 10 µM
CC1(c2ccccc2)NC(=O)N(NC(=O)c2ccc(-c3ccccc3)cc2)C1=O (stereo not given) | > 10 | IC50 (PBLUC_HILL_SLOPE 2.29, PBLUC_R_SQUARED 0.368, read-out: LUCIFERASE INFECTION ASSAY - IC50): 6.98 µM
O=C(NCc1ccccn1)c1nn(CCc2ccccc2)c2c1CN(Cc1cccc3c1OCO3)CC2 | > 6.66 | IC50 (PBLUC_HILL_SLOPE 2.34, PBLUC_R_SQUARED 0.543, read-out: LUCIFERASE INFECTION ASSAY - IC50): 5.68 µM
Cc1cc(C(=O)COC(=O)c2ccc3[nH]c4c(c3c2)CCCC4)c(C)n1Cc1ccccc1Cl | 4.61 | IC50 (PBLUC_HILL_SLOPE 2.26, PBLUC_R_SQUARED 0.534, read-out: LUCIFERASE INFECTION ASSAY - IC50): 1.74 µM
CC(C)c1nc2cc(NC(=O)CSc3nnnn3C3CC3)ccc2o1 | > 10 | IC50 (PBLUC_HILL_SLOPE 2.34, PBLUC_R_SQUARED 0.391, read-out: LUCIFERASE INFECTION ASSAY - IC50): 3.99 µM
CC1CCN(C(CNC(=O)N2CCc3sccc3C2)c2cccs2)CC1 (stereo not given) | 9.12 | IC50 (PBLUC_HILL_SLOPE 2.26, PBLUC_R_SQUARED 0.56, read-out: LUCIFERASE INFECTION ASSAY - IC50): 3.45 µM
Cc1ccc(Oc2ccc(NC(=O)c3cc(C)on3)cc2)cc1 | 4.67 | IC50 (PBLUC_HILL_SLOPE 2.32, PBLUC_R_SQUARED 0.861, read-out: LUCIFERASE INFECTION ASSAY - IC50): 1.81 µM
Cc1cc(-n2c(C)cc(/C=C3\S/C(=N\C4CCCC4)NC3=O)c2C)no1 | > 10 | IC50 (PBLUC_HILL_SLOPE 2.3, PBLUC_R_SQUARED 0.376, read-out: LUCIFERASE INFECTION ASSAY - IC50): 5.21 µM
CCCCN1C(=O)C(=O)c2cc(Br)cc(C)c21 | > 10 | IC50 (PBLUC_HILL_SLOPE 2.24, PBLUC_R_SQUARED 0.667, read-out: LUCIFERASE INFECTION ASSAY - IC50): 4.61 µM
